Laboratory results: patent US6326471A, “Immunogenic peptides of prostate specific antigen” (priority 1998, dated 2001)

How the values were obtained:
[1] = system: antibody to the alpha subunit of the acetylcholine receptor; details: without added hydrophobic LI or AI residues; cited from earlier work
[2] = system: anti-whole PSA antibody; test: ELISA activity of PSA peptide segments with anti-whole PSA antibody; format: binding; details: average of "wet" and "dry" ELISA methods; rank 1 = most reactive of 14 peptides
Description: The amino acid sequence of PSA was divided into fourteen peptide segments. Thirteen of the peptides were 19-mers to 21-mers and one peptide was a 16-mer. […] Two of the peptides lacked both the proline and the hydrophobic-hydrophilic-hydrophobic region descriptors. The combined presence of the two descriptors correlated extremely well with the immunodominance of PSA peptide segments. The six highest scoring PSA peptides in terms of ELISA activity with anti-whole PSA antibody had both characteristics as did the eighth best. Also, the presence of a central proline in a segment lacking the adjacent hydrophobic, hydrophilic, and hydrophobic region characteristic successfully predicted four of five subdominant (moderately ELISA reactive) epitopes, while the absence of both the proline and the hydrophobic-hydrophilic-hydrophobic region characteristics in a peptide segment correctly predicted the two least ELISA reactive peptide segments.

**Q.** For NPDVK, which “antibody binding of the peptide alone” value [1] is on record?
**A.** could not bind antibody alone

**Q.** For “YSTCSGDSGGPLVCNGVLQG [PSA peptide 186-204]”, which ELISA activity rank [2] is on record?
**A.** 11
